Experimental data taken from patent US7049328B2, “Use for deferiprone” (priority 2000, dated 2006).

Legend:
mouse model = mouse model of Gale et al; cited from earlier work
[1] = system: subjects with thalassemia; assay: Prospective clinical study of the Assignee in 187 subjects with thalassemia, heart failure; assay type: in vivo, human; conditions: treated for up to 5 years
Source text: The Assignee completed other studies wherein the largest prospective clinical study ever conducted for an iron chelator was made. One hundred eighty-seven subjects with thalassemia were enrolled in this trial conducted by Drs. A. Cohen, R. Galanello, A. Piga, and V. De […] in 3 centres in Italy and 1 center in the USA.

[2] = Serum / blood concentrations at standard doses; assay type: in vivo, human; conditions: current / standard formulation
Protocol: Although a serum concentration of 100 μM for deferiprone can occur with the administration of a single 25 mg/kg dose^22, the serum concentration of desferrioxamine in patients receiving 40 mg/kg/day is usually less than 10 μM.^23. Since the desferrioxamine concentrations used in the myocyte study were more than 10fold the expected serum concentrations, the in vivo cardioprotective effect of this chelator would be expected to be less than that of deferiprone, but not four times less protective placing the patient at a 4-fold greater likelihood of developing a worsening of their cardiac status with desferrioxamine.
Another factor may be related to the different pharmacokinetic characteristics of deferiprone and desferrioxamine when these drugs are given at standard doses, as in the present study. For example, deferiprone at 25 mg/kg, produces peak concentrations of approximately 100 μM with serum concentrations declining to about 10 μM in 6 hours, and this pattern is repeated three times daily, seven days a week. On the other hand, desferrioxamine at 40 mg/kg achieves concentrations of only 5–10 μM and only for the duration of the infusion (8–12 hours/day, 5–7 days per week). The long periods of time without the presence of an iron chelator may have a profound effect on the generation of iron-induced activity within myocytes and through non-transferrin bound iron. […]

[3] = system: subjects with thalassemia major; conditions: one patient participating in the study (ref. 31); cited from earlier work
cardiac iron = conditions: cited from earlier work; for Change in T2 relaxation time in a randomized trial: mean treatment period of 22 months
[4] = system: iron-loaded rat neonatal myocytes; conditions: cited from earlier work; for Cardio-protective effects against iron-induced damage in neonatal rat myocytes: 100 μM; for Protecting the myocytes against iron-induced damage: at the concentrations used; for Removing iron from iron-loaded rat neonatal myocytes: in vitro
patients = conditions: large safety study; cited from earlier work
[5] = system: iron overload in patients with thalassemia major; assay: Iron overload assessment in the retrospective study (serum ferritin, hepatic iron by SQUID, urinary iron excretion); assay type: in vivo, human; conditions: for Mean ± SD overall urinary iron excretion: during the study period
Protocol: All patients were subjected to the same transfusion regimen aimed at maintaining the pretransfusion hemoglobin levels at 9.5–10.0 g/dL and the mean hemoglobin at 12.0 g/dL. At each episode of red blood cell transfusion, each patient was interviewed and underwent clinical evaluation by a staff physician. The iron overload was determined by monthly assessment of the transfusional-iron input and by quarterly assessment of serum ferritin.
To evaluate the differences related to chelation therapy between the two groups of subjects, after the start of the study, 2 sample t-tests or Chi-square tests were performed to compare their transfusional iron input, serum ferritin, percentage of subjects with more than 50% of their serum ferritin data greater than 2500 μg/L during the study, compliance with chelation therapy, liver iron concentration and urinary iron excretion.

[6] = cited from earlier work
[7] = system: subjects with thalassemia major; assay: Retrospective study of cardiac disease (NYHA class, echocardiogram) and survival under chelation therapy; assay type: in vivo, human; conditions: for Percentage of patients with improvement of cardiac disease diagnosed at first assessment: NYHA classification; for Percentage of patients with worsening of the cardiac disease: overall, patients with at least 2 cardiac assessments; for Newly diagnosed cardiac disease: patients cardiac disease-free at first assessment with a second cardiac assessment; for Deaths during the study period: patients treated for 4 or more years; for Normalization of the Ejection Fraction (EF) during chelation therapy: patients with abnormal EF at first assessment (2 deferiprone, 1 desferrioxamine); for Improvement of the Systolic Function (SF): patients with abnormal SF at first echocardiographic assessment; for Percentage of patients with improvement of cardiac disease diagnosed at first assessment / Worsening of the cardiac disease in patients with previously diagnosed cardiac disease: patients with cardiac disease at first assessment
Protocol: The study was a single centre, retrospective analysis of medical records of the occurrence of cardiac disease and of the survival of all subjects with thalassemia major treated with deferiprone or with desferrioxamine at the Centro Microcitemie of the University of Turin since Jan. 1, 1995. The medical records were evaluated of all patients ≧5 year-old at the time of the start of the review period and who had the diagnosis of thalassemia major confirmed by laboratory tests (electrophoresis and/or DNA analysis) and clinical criteria (participant's hemoglobin and transfusion dependency).
In addition to the clinical evaluation and laboratory testing, patients underwent periodic cardiac examination and assessment by a cardiologist, which in addition to the physical examination included echocardiogram and 24-hour electrocardiographic Holter monitoring if indicated. Cardiac disease was classified, according to the criteria defined by the New York Heart Association ^17, by a cardiologist experienced in heart problems in subjects with hemoglobinopathies and who was unaware of the chelation therapy of the patients. Worsening of the Systolic Function (SF) or the Ejection Fraction (EF) was defined as an abnormal result at the last assessment in patients with a normal result at the first assessment for the study. Improvement was defined as a normal result at the last assessment for patients with an abnormal result at the first assessment. The first cardiac assessment was considered as the baseline value for each patient. For patients with more than one echocardiograph assessment within a year of the study, the change was based on the mean of the results of that year.
Starting in 1995, a substantial proportion of subjects followed up at the center were treated with deferiprone, in clinical trials or for compassionate therapy. For these patients, deferiprone was given in a dose of 25 mg/kg of body weight, three times per day. The remaining patients had maintained therapy with desferrioxamine (20 to 60 mg/kg/day), given as a subcutaneous infusion for 8 to 12 hour, 4 to 7 days a week except for one patient. Although 2 patients in the desferrioxamine group had their chelation intensified with intravenous chelation during the period of this review, they were not excluded from the analysis.
The Kaplan-Meier analysis of heart disease free survival for patients who were disease-free (NYHA class not applicable=0) at the beginning of the review period was performed by using the procedure LIFETEST from SAS (SAS Institute, Cary, N.C.). The primary comparison of the two groups was based on the log rank test. […] In addition to the Kaplan-Meier analysis, the incidence of patients with a worsening of their NYHA class from the first to the last cardiac assessment was determined for, each treatment group. Chi-square test was performed to compare the incidence between the two groups.

Q: Which “Reduction of iron concentrations from the heart” value (mouse model) does the source give for `Cc1c(O)c(=O)ccn1C` [Deferiprone, 1,2-dimethyl-3-hydroxypyrid-4one] here?
A: The value was “none of the compounds studied, being desferrioxamine and deferiprone among others, reduced iron concentrations from the heart”.

Q: And the “Occurrence of heart failure” value [1]?
A: Its value is “no heart failure occurred”.

Q: What about the “Time after which blood levels fall to very low levels” value [2] of the same compound?
A: The value was “about 4 hours”.

Q: What about the “Reversal of iron-induced congestive heart failure” value [3] of the same compound?
A: The value was “successful reversal”.

Q: And the “T2 relaxation time, after treatment” value (cardiac iron; 23 patients treated for over one year, normal 32 msec)?
A: The value was 30.5 ± 6.7 ms.

Q: What about the “T2 relaxation time, before” value (cardiac iron; 23 patients, start value, normal 32 msec) of the same compound?
A: The value was 26.6 ± 8.4 ms.

Q: What about the “Change in T2 relaxation time in a randomized trial” value (cardiac iron) of the same compound?
A: Its value is “significant improvement”.

Q: What about the “Cardio-protective effects against iron-induced damage in neonatal rat myocytes” value [4] of the same compound?
A: The value was “equal cardio-protective effects”.

Q: And the “Protecting the myocytes against iron-induced damage” value [4]?
A: Its value is “equally effective”.

Q: And the “Removing iron from iron-loaded rat neonatal myocytes” value [4]?
A: Its value is “effective”.

Q: And the Development of agranulocytosis (patients)?
A: Its Development of agranulocytosis is “about 1%”.

Q: What about the “Mean ± SD hepatic iron concentration - SQUID during the last year of the review period” value [5] of the same compound?
A: Its value is 2.5 ± 1.2 mg FE/g liver wet weight.

Q: And the “Percentage (%) of patients with more than 50% of their serum ferritin results > 2,500 μg/L during the review period” value [5]?
A: The value was 33%.

Q: What about the “Mean ± SD overall urinary iron excretion” value [5] of the same compound?
A: The value was 18.1 ± 13.2 mg Fe/day.

Q: What about the “Mean serum ferritin ± SD at year 4 of the review period” value [5] of the same compound?
A: Its value is 2402 ± 1331 µg/L.

Q: What about the “Serum concentrations declining to” value ([6]; 25 mg/kg, in 6 hours) of the same compound?
A: Its value is “about 10 μM”.

Q: What about the Peak concentrations ([6]; 25 mg/kg) of the same compound?
A: The Peak concentrations was “approximately 100 μM”.

Q: What about the Serum concentration ([6]; single 25 mg/kg dose) of the same compound?
A: The Serum concentration was 100 µM.

Q: And the “Percentage of patients with improvement of cardiac disease diagnosed at first assessment” value (“Percentage of patients … at first assessment” below) [7]?
A: Its value is 40 (2/5) %.

Q: What about the “Percentage of patients … at first assessment” value ([7]; listed as deferiprone) of the same compound?
A: The value was 40%.

Q: And the “Worsening of the SF at the last assessment” value ([7]; number of patients)?
A: The value was 2 patients.

Q: And the “Percentage of patients with worsening of the cardiac disease” value (shortened to “Percentage … of the cardiac disease”) [7]?
A: Its value is 4 (2/45) %.

Q: What about the “Percentage … of the cardiac disease” value ([7]; listed as deferiprone) of the same compound?
A: The value was 4%.

Q: And the “Newly diagnosed cardiac disease” value [7]?
A: The value was 5%.

Q: And the “Deaths during the study period” value [7]?
A: The value was “No patient”.

Q: What about the “Normalization of the Ejection Fraction (EF) during chelation therapy” value [7] of the same compound?
A: The value was “All three patients presented a normalization of the EF”.

Q: And the “Improvement of the Systolic Function (SF)” value [7]?
A: The value was 2 of the 4.

Q: What about the “Worsening of the cardiac disease in patients with previously diagnosed cardiac disease” value [7] of the same compound?
A: Its value is “none of the 5”.

Q: With `CC(=O)N(O)CCCCCNC(=O)CCC(=O)N(O)CCCCCNC(=O)CCC(=O)N(O)CCCCCN` [Desferrioxamine] as the compound, how does the “Reduction of iron concentrations from the heart” value (mouse model) read?
A: Its value is “none of the compounds studied, being desferrioxamine and deferiprone among others, reduced iron concentrations from the heart”.

Q: And the “Change in T2 relaxation time in a randomized trial” value (cardiac iron)?
A: Its value is “no change”.

Q: And the “Cardio-protective effects against iron-induced damage in neonatal rat myocytes” value [4]?
A: The value was “equal cardio-protective effects”.

Q: What about the “Protecting the myocytes against iron-induced damage” value [4] of the same compound?
A: The value was “equally effective”.

Q: And the “Iron removed, comparison of the two chelators” value ([4]; equimolar concentrations)?
A: The value was “removed more iron than deferiprone”.

Q: And the “Removing iron from iron-loaded rat neonatal myocytes” value [4]?
A: Its value is “effective”.

Q: And the “Mean ± SD hepatic iron concentration - SQUID during the last year of the review period” value [5]?
A: Its value is 1.8 ± 1.0 mg FE/g liver wet weight.

Q: And the “Percentage (%) of patients with more than 50% of their serum ferritin results > 2,500 μg/L during the review period” value [5]?
A: Its value is 21%.

Q: And the “Mean ± SD overall urinary iron excretion” value [5]?
A: Its value is 15.5 ± 12.9 mg Fe/day.

Q: What about the “Mean serum ferritin ± SD at year 4 of the review period” value [5] of the same compound?
A: The value was 2050 ± 1319 µg/L.

Q: And the “Percentage of patients … at first assessment” value [7]?
A: Its value is 27 (3/11) %.

Q: What about the “Percentage of patients … at first assessment” value ([7]; listed as desferrioxamine) of the same compound?
A: The value was 27%.

Q: What about the “Likelihood to develop a worsening of cardiac status versus deferiprone-treated patients” value ([7]; desferrioxamine versus deferiprone, same period) of the same compound?
A: Its value is 4 fold.

Q: What about the “Worsening of the EF” value ([7]; number of patients) of the same compound?
A: The value was 3 patients.

Q: And the “Worsening of the SF at the last assessment” value ([7]; number of patients)?
A: The value was 6 patients.

Q: What about the “Percentage … of the cardiac disease” value [7] of the same compound?
A: The value was 17 (10/59) %.

Q: What about the “Percentage … of the cardiac disease” value ([7]; listed as desferrioxamine) of the same compound?
A: The value was 17%.

Q: What about the “Newly diagnosed cardiac disease” value [7] of the same compound?
A: The value was 19%.

Q: What about the “Deaths during the study period” value [7] of the same compound?
A: Its value is “No patient”.

Q: What about the “Normalization of the Ejection Fraction (EF) during chelation therapy” value [7] of the same compound?
A: Its value is “All three patients presented a normalization of the EF”.

Q: And the “Improvement of the Systolic Function (SF)” value [7]?
A: Its value is 5 of the 8.

Q: What about the “Worsening of the cardiac disease in patients with previously diagnosed cardiac disease” value [7] of the same compound?
A: The value was “one of the 11”.
